# What was measured:
# [1] = target: T1, MAO-B (Homo sapiens, UniProt P27338); assay: MAO-Glo luminescent assay, MAO-B inhibition; type: biochemical; details: FIG. 2; compared with myosmine, anatabine, anabasine, nornicotine
# T1 construct: purchased
# T1 sequence (P27338 1-520): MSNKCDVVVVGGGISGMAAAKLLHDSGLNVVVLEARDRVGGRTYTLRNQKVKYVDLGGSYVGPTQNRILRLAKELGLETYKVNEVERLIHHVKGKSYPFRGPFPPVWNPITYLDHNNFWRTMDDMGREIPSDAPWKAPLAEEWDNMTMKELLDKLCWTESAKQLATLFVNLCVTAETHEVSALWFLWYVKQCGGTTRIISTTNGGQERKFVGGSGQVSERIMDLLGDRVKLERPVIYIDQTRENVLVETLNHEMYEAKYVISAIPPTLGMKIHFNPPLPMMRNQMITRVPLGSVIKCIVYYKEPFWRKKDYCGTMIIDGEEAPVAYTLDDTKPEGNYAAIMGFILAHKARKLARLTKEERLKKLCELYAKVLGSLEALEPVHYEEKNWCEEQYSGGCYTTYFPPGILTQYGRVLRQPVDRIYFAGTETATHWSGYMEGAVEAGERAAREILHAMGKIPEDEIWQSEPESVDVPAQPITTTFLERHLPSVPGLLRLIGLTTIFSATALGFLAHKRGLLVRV
# From the text: (§1) This example describes experiments for determining monoamine oxidase (MAO) inhibition for isomyosmine and other alkaloids. MAOs are enzymes located on the outer membrane of mitochondria and are involved in the catabolism of monoamine neurotransmitters. There are two well-characterized isoenzymes: MAO-A, which predominantly catabolizes serotonin and norepinephrine, and MAO-B, which preferentially catabolizes benzylamine and phenylethylamine. Dopamine and tyramine are metabolized by both isoforms.
# To detect the activity of MAO, a luminescent method (MAO-Glo Assay kit, from Promega, Cat # V1401) was used. In this method, a MAO substrate (a derivative of beetle luciferin provided in the kit) is mixed with the compound to be tested (in this case, myosmine and control compounds). Then, the MAO enzymes (either A or B, purchased separately) are added to the mixture and incubated with the reaction for 1 hour at room temperature. The MAO enzymes, if not inhibited by the test compound, will convert the substrate into methyl ester luciferin. Finally, a luciferin detection reagent (provided by the kit) is added (20 minutes at room temperature) to stop the MAO reaction and convert methyl ester luciferin into D-luciferin. […] The luminescent signal is measured and recorded using a luminometer. […]
# [2] = system: male-pattern baldness; assay: Oral treatment of a person with male-pattern baldness (scalp photographs); type: in vivo, human; details: oral 60 mg/day, photographs after three weeks and 90 days of treatment (FIG. 3-5)
# Experimental: A person and approximately 75 kg in weight was experiencing male-pattern baldness. The individual was orally administered isomyosmine at a dosage of 60 mg/day over the course of three weeks. FIG. 3 is a photograph of the scalp of the individual before treatment. FIG. 4 is a photograph of the scalp of the individual after three weeks of treatment (and a haircut). FIG. 5 is a photograph of the scalp of the individual after 90 days of treatment.
# [3] = target: T2, MAO-A (Homo sapiens, UniProt P21397); assay: MAO-Glo luminescent assay, MAO-A inhibition; type: biochemical; details: FIG. 1
# T2 construct: purchased
# T2 sequence (P21397 1-527): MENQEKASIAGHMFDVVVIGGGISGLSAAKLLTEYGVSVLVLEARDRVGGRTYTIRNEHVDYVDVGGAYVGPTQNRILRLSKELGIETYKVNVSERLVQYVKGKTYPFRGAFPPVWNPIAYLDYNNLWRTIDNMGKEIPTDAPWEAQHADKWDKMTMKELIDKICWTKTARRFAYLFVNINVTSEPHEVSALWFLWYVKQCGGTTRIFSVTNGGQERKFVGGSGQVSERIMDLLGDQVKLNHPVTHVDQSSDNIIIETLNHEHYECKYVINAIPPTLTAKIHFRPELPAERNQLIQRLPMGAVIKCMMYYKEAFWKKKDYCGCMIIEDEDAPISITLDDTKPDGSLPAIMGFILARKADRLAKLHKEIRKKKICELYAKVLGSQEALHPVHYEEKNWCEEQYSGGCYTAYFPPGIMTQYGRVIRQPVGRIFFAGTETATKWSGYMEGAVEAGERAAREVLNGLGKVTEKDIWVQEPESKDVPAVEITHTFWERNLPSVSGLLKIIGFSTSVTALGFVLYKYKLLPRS
# From the text: as §1
# To detect the activity of MAO, a luminescent method (MAO-Glo Assay kit, from Promega, Cat # V1401) was used. In this method, a MAO substrate (a derivative of beetle luciferin provided in the kit) is mixed with the compound to be tested (in this case, myosmine and control compounds). Then, the MAO enzymes (either A or B, purchased separately) are added to the mixture and incubated with the reaction for 1 hour at room temperature. The MAO enzymes, if not inhibited by the test compound, will convert the substrate into methyl ester luciferin. Finally, a luciferin detection reagent (provided by the kit) is added (20 minutes at room temperature) to stop the MAO reaction and convert methyl ester luciferin into D-luciferin. […] The luminescent signal is measured and recorded using a luminometer.
# Anatabine was obtained from Emerson Resources, Norristown, Pa.
smiles,measurement,setting,value
"C1=NC(c2cccnc2)CC1 (stereo not shown) [isomyosmine, 3-(3,4-dihydro-2H-pyrrol-2-yl)-pyridine]","inhibiting the activity of MAO-B, comparison of curves",[1],the most potent among the five alkaloids tested
same,hair growth on the scalp,[2],"significant new growth of healthy, dark-colored hair on the scalp"
same,inhibition at 2000 µM,"[3]; 2 mM concentration (2,000 micromolar), read-out: inhibition of the enzymatic activity of MAO-A",~50%
same,"inhibiting the enzymatic activity of MAO-A, comparison of curves","[3]; compared with myosmine, anatabine, anabasine, nornicotine, clorgyline positive control",the most potent of the five

# Source: US10314775B2, “Methods of increasing hair growth and improving hair appearance” (MyMD Pharmaceuticals, Inc., priority 2016, dated 2019)
